Measurements from US20100093706A1, “MULTIMEDIATOR TRANSPORTER INHIBITORS FOR USE IN TREATMENT OF CENTRAL NERVOUS SYSTEM DISORDERS” (priority 2006, published 2010).

Experiments:
[1] = target: dopamine D2 receptor (Homo sapiens, UniProt P14416); test: in vitro selectivity panel, dopamine D2 receptor; assay type: binding
Experimental: (§1) The in vitro selectivity profile of two representative subject compounds, (3) and (1), are also tested against a panel of other receptors, including the M1 receptor, Histamine H1 receptor, sigma-1 (σ1) receptor, β1-adrenergic receptor, and dopamine D2 receptor. Representative results are listed below in Table III: […]

[2] = target: 5-HT (Homo sapiens, UniProt P31645); test: cell-based
[3] = target: Histamine H1 receptor (Homo sapiens, UniProt P35367); test: in vitro selectivity panel, Histamine H1 receptor; assay type: binding
Experimental: as §1

[4] = target: NET (norepinephrine transporter or SLC6A2) (Homo sapiens, UniProt P23975); test: cell-based
[5] = target: T1, M1 receptor (Homo sapiens, UniProt P11229); test: in vitro selectivity panel, M1 receptor; assay type: binding
T1 sequence (P11229 1-460): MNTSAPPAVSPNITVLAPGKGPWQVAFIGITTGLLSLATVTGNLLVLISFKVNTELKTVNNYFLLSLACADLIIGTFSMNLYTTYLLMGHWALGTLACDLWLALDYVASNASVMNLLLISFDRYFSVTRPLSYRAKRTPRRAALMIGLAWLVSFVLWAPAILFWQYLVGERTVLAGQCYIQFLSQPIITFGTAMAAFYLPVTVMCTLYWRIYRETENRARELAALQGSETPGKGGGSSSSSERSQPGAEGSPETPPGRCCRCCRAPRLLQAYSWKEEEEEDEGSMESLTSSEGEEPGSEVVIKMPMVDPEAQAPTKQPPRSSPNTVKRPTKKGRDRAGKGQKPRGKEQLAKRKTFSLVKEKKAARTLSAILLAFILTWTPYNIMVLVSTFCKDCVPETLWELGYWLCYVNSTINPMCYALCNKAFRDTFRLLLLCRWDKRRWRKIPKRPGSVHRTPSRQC
Experimental: as §1

[6] = target: β1-adrenergic receptor (Homo sapiens, UniProt P08588); test: in vitro selectivity panel, β1-adrenergic receptor; assay type: binding
Experimental: as §1

[7] = target: sigma-1 (σ1) receptor (Homo sapiens, UniProt Q99720); test: in vitro selectivity panel, sigma-1 receptor; assay type: binding
Experimental: as §1

[8] = target: T2, DAT (h) (Homo sapiens, UniProt Q01959); test: cell-based; assay type: cell-based
T2 construct: expressed in transfected cells
Experimental: (§2) Functional activity of the compounds was determined in vitro in cellular assays using recombinant human cell lines.

[9] = target: T3, 5-HT (h) (Homo sapiens, UniProt P31645); test: cell-based; assay type: cell-based; details: read-out: 5-HT (h) in vitro functional uptake
T3 construct: expressed in transfected cells; host or cells: HEK-293
Experimental: as §2

[10] = target: T4, NET (h) (Homo sapiens, UniProt P23975); test: cell-based; assay type: cell-based; details: read-out: NET (h) in vitro functional uptake
T4 construct: expressed in transfected cells; host or cells: MDCK
Experimental: as §2

[11] = in vivo; details: rat
[12] = system: rats; test: forced swim test (behavioral despair assay) in rats; assay type: in vivo; details: rat, i.p., racemic mixtures of diastereomers
Experimental: In vivo efficacy of several illustrative inhibitors of the instant invention, (1), (3), and (4), were measured using standard forced swim test model using rat. The objective of this study was to assess the antidepressant effects of test compounds in the behavioral despair assay in rats using a modification of a method described by Porsolt R. D. et al. in Behavioural despair in rats: a new model sensitive to antidepressant treatment, Eur. J. Pharmacol., 47: 379-391, 1978; Porsolt et al., Nature 266: 730-732, 1977; and Porsolt et al., in Psychopharmacology, Olivier, Mos, and Slangen (eds) Birkhäuser Verlag, Basel, pp. 137-159, 1991. Briefly, when mice (or rats) are forced to swim in a cylinder from which no escape is possible, they readily adopt a characteristic immobile posture and make no further attempts to escape except for small movements needed to keep floating. The immobility is considered by some to reflect a “depressive mood” (Porsolt et al., Nature 266: 730-732, 1977) in which animals cease to struggle to escape the aversive situation. The immobility induced by the procedure is influenced by a wide variety of antidepressants (Porsolt et al., in Psychopharmacology, Olivier, Mos, and Slangen (eds) Birkhauser Verlag, Basel, pp. 137-159, 1991) and has a good predictive validity in that it detects antidepressants with different mechanisms of action (TCAs, SSRIs, MAOIs, and other atypical ones). The test is sensitive to muscle-relaxant (benzodiazepines) and sedative (neuroleptics) effects, leading to enhanced immobility (Porsolt et al., supra).
In a typical experiment, animals are placed singly into a cylinder (e.g. 46×30 cm) containing fresh water at about 20° C. for 6 minutes. The activity (or immobility) of the animal is measured by an observer minute by minute. In more detail, the animals were preconditioned in a pretest session, where the rats were individually forced to swim inside a vertical plexiglass cylinder containing water maintained at 19-20° C. After 15 minutes in the water, they were allowed to dry for […] in a heated enclosure. Twenty-four hours later, the compounds were administered either intraperitoneally or orally to the animals. One hour after administration of the test compound, animals were put back into the cylinder containing water. The total duration of immobility was measured during the last 4 minutes of a 6 minute test.
The results are expressed as the percentage of variation of the total duration of immobility calculated from the mean value of the vehicle-treated group (% variation=[(immobility duration of vehicle−immobility duration of test compound)/(immobility duration of vehicle)]×100%).
In order to measure the in vivo efficacy of inhibiting DAT in rats using an inhibitor of the instant invention, one test inhibitor ((1), (3), or (4)) was injected i.p. as racemic mixtures of diastereomers into the animals, at various-doses (e.g. 7.5 and […]). Sibutramine (2.0 and 2.5 mg/kg), Bupropion (7.5 and 10 mg/kg), and Imipramine (30 mg/kg) were similarly administered as controls. […] Asterisks indicate highly statistical significant results.
A fourth inhibitor, (6) was administered p.o. as a racemic mixture of diastereomers at either 35 or 75 mg/kg. Sibutramine (5.0 and 3.75 mg/kg), Bupropion (30 and 40 mg/kg), and Imipramine (100 mg/kg) were similarly administered as controls.
Similarly, (1) was also administered p.o. as a racemic mixture of enriched (95:5) diastereomer at either 35 or 75 mg/kg. […]

[13] = target: T5, DAT (SLC6A3) (Homo sapiens, UniProt Q01959); test: in vitro inhibition profile, IC50 of DAT (uptake assay); assay type: cell-based
T5 construct: expressed in transfected cells
Experimental: Before the assay, cells expressing DAT are washed once with KRH and equilibrated for 5 min. The cells may be assayed in 24-well plates and incubated for 2-5 min. with tritiated amines. Nontransported inhibitors were preincubated for 5 min, and substrates were applied together with the tritiated substrate.
Experiments to determine the ionic requirements for DAT-mediated uptake are done in KRH buffer, substituting LiCl or choline Cl for NaCl (sodium-dependence) or substituting D-gluconates for NaCl and KCl, and Ca(NO3)2 for CaCl2 (chloride dependence). Cells are washed twice with sodium- or chloride-free KRH before the assay (each wash step at least 5 min). In all transport assays, incubation periods and substrate concentrations are chosen such that uptake obeyed first-order rate kinetics.
Vmax values for amine uptake in stable transfected DAT-cells are determined in parallel assays for at least two amines per experiment and expressed as relative values.

[14] = target: DAT (r) (Rattus norvegicus, UniProt P23977); test: in vitro functional uptake, rat DAT; assay type: cell-based
[15] = target: T6, DAT (Homo sapiens, UniProt Q01959); details: human recombinant CHO-K1 cells; historical value (MDS Pharma Services); read-out: KD of radioligand, DAT assay; cited from earlier work
T6 construct: expressed in transfected cells; host or cells: CHO-K1

[16] = target: T7, NET (Homo sapiens, UniProt P23975); details: human recombinant MDCK cells; historical value (MDS Pharma Services); read-out: KD of radioligand, NET assay; cited from earlier work
T7 construct: expressed in transfected cells; host or cells: MDCK
T7 sequence (P23975 whole entry): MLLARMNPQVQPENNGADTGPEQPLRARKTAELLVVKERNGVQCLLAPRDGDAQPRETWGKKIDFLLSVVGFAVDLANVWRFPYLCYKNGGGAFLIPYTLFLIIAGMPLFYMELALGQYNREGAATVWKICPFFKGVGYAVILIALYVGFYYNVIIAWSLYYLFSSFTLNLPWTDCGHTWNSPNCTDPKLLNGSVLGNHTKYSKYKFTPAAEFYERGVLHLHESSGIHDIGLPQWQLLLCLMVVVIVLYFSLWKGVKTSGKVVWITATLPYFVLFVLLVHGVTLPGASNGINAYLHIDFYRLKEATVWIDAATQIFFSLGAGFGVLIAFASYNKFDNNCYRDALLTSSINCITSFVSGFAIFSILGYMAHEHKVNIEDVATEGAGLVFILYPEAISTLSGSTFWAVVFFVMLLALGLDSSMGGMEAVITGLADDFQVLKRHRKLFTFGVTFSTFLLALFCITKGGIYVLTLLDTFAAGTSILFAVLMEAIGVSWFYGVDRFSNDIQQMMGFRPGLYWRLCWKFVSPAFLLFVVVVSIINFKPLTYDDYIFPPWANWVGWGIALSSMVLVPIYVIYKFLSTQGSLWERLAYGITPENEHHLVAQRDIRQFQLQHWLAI

T2 sequence (Q01959 whole entry): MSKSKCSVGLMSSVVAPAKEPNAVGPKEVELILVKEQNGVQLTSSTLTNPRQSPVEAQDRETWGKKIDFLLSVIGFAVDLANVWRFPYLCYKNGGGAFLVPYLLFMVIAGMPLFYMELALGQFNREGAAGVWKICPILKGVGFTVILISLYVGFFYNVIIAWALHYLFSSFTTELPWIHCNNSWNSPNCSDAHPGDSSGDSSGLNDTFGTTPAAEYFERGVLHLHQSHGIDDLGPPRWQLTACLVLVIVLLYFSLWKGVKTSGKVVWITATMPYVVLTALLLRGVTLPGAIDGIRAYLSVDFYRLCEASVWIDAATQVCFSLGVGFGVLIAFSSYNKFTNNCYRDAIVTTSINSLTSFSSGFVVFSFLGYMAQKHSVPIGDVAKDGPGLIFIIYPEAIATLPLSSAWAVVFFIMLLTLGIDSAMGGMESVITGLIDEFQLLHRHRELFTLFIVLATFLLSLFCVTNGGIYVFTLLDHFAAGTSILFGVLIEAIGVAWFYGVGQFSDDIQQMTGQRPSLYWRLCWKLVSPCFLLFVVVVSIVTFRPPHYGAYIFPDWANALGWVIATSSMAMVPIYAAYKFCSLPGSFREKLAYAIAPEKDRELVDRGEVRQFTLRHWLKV
T5 sequence (Q01959 whole entry): as above
T3 sequence (P31645 whole entry): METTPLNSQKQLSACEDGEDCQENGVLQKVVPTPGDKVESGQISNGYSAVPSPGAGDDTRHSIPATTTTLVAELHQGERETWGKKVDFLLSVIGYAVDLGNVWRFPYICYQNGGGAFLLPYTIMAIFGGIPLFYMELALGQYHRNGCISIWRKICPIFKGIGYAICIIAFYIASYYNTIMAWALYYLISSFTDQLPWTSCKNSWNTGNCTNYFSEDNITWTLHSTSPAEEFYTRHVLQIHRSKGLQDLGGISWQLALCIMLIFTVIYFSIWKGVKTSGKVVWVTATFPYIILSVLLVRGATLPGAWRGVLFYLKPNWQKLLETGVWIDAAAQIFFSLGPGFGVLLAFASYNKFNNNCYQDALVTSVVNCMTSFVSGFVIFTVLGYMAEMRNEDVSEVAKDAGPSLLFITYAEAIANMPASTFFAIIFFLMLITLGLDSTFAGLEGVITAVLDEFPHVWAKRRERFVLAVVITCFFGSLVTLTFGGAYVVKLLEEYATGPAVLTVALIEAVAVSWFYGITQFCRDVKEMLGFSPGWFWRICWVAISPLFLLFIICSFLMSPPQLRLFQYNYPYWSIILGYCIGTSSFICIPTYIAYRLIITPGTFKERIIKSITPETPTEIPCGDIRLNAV
Chain of 5-HT (P31645 whole entry): as above
T6 sequence (Q01959 whole entry): as the sequence (Q01959 whole entry) above
Chain of Histamine H1 receptor (P35367 whole entry): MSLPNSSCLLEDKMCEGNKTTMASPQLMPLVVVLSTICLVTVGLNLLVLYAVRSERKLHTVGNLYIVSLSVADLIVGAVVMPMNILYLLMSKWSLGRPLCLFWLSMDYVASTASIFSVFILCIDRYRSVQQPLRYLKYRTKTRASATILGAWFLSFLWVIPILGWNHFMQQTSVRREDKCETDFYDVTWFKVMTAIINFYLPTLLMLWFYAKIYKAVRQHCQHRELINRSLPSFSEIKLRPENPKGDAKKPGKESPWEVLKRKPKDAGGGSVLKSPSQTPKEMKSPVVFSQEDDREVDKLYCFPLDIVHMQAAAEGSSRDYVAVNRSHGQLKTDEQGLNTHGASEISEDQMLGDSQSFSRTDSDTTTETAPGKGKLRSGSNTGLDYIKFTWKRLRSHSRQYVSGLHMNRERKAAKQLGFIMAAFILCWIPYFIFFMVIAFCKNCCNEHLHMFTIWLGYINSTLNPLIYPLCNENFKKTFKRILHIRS
Chain of dopamine D2 receptor (P14416 whole entry): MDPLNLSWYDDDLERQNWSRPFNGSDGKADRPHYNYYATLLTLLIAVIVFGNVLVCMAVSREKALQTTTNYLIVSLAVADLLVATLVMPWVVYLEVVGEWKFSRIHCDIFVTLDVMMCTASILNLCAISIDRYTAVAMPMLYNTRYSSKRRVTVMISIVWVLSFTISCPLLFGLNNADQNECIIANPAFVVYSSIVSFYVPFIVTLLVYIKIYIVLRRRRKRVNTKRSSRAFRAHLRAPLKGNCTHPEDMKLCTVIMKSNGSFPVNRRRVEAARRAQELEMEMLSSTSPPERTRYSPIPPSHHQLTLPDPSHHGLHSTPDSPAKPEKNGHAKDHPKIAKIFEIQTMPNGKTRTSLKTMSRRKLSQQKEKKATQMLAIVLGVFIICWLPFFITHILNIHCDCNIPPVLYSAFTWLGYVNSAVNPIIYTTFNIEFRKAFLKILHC
Chain of sigma-1 (σ1) receptor (Q99720 whole entry): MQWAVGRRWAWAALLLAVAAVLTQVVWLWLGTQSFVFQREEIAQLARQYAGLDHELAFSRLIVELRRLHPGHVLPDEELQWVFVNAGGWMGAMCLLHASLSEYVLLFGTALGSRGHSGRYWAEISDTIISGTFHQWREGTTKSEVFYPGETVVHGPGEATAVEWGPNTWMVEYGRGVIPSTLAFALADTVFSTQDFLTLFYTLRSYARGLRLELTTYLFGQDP
T4 sequence (P23975 whole entry): as the sequence (P23975 whole entry) above
Chain of NET (norepinephrine transporter or SLC6A2) (P23975 whole entry): as above
Chain of DAT (r) (P23977 whole entry): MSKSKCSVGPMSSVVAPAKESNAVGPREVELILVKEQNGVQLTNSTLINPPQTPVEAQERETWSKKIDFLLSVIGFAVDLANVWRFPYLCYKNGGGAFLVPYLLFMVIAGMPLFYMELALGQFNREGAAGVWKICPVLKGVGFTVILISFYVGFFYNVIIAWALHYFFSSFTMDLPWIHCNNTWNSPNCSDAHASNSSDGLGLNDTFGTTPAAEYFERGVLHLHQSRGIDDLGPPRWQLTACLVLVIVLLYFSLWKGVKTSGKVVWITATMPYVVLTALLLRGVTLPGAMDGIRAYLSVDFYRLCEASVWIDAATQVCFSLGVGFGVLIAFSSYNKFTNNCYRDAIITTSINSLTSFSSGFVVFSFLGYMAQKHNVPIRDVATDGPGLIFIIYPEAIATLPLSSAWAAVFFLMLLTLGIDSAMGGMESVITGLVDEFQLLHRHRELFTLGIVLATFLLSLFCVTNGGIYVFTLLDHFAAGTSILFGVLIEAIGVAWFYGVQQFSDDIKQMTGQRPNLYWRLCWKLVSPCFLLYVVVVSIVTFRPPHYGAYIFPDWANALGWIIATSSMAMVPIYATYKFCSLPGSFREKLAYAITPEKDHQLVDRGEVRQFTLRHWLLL
Chain of β1-adrenergic receptor (P08588 whole entry): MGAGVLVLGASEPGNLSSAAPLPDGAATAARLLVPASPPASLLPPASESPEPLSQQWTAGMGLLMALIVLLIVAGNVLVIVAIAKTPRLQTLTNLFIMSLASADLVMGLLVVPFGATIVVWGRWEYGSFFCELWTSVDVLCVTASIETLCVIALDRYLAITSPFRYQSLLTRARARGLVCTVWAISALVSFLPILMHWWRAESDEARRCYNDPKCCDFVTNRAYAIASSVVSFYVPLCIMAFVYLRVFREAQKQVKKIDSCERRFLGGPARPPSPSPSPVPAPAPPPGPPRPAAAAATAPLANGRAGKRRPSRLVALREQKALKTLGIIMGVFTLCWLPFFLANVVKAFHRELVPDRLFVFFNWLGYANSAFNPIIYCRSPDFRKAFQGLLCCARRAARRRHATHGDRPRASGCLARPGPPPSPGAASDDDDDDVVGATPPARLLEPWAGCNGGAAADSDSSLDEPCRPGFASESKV

CC1CCC(COc2ccc(C(F)(F)F)cc2)CN1CC1(c2ccc(Cl)cc2)CCC1 (stereo not drawn) [(3)]
D2 (nM)h [1]: 1000 nM | IC50 [2]: 550 nM | Histamine H1 (nM)h [3]: 5000 nM | IC50 [4]: 150 nM | M1 (nM)h [5]: 5000 nM | β1-adrenergic (nM)h [6]: 5000 nM | Sigma σ1 (nM)h [7]: 5000 nM | EC50 [8]: 1 nM | selectivity for DAT over 5-HT [8]: 825 fold | selectivity for DAT over NET [8]: 200 fold | EC50 [9]: 825 nM | EC50 [10]: 200 nM | Vd [11]: 10 L/kg | half-life ([11]; iv): 500 min | bioavailability ([11]; po): 70% | forced swim test efficacy versus commercial drugs (FIG. 1) [12]: performed equally well, if not better, than the commercial drugs Sibutramine, Bupropion, and Imipramine | IC50 [13]: 1 nM | fold selectivity of DAT against related receptors (NET, 5-HT) ([13]; from Table II IC50): 150-550 fold | EC50 [14]: 50 nM

COC(=O)[C@H]1[C@@H](c2ccc(I)cc2)C[C@@H]2CC[C@H]1N2C [[^125I] RTI-55]
Kd [15]: 0.58 nM | Kd [16]: 24 nM
